# Laboratory results as given in patent US20120184586A1, “DESFERRITHIOCIN POLYETHER ANALOGUES AND USES THEREOF” (University of Florida Research Foundation, Inc., priority 2009, published 2012).
# “And” between values parts separate entries of the source, which are not always exact repeats. Equal values may be shown once. “Also recorded” adds a separate entry of the source. Read-outs that look alike come from different tables or passages of the source.
# Experiments:
# [1] = tested on: iron-overloaded Cebus apella primates; conditions: cited from earlier work
# [2] = historical findings from references; cited from earlier work
# [3] = 2:1 complex with Fe(III); cited from earlier work
# [4] = tested on: non-iron-overloaded, bile duct-cannulated rats; conditions: historical data, cited from earlier work
# [5] = trial abandoned by Genzyme; cited from earlier work
# [6] = tested on: non-iron-overloaded, bile duct-cannulated rats; assay: Chelator-induced iron clearance (ICE, biliary ferrokinetics) in non-iron-overloaded, bile duct-cannulated rodents; assay type: in vivo, rat (male Sprague-Dawley); conditions: for time of maximum iron clearance (MIC), biliary ferrokinetics / time until iron excretion is over / returned to baseline, biliary ferrokinetics / ICE (iron-clearing efficiency), rodents: bile duct-cannulated rats; for time of maximum iron clearance (MIC), biliary ferrokinetics / time until iron excretion is over / returned to baseline, biliary ferrokinetics: 300 μmol/kg PO; for ICE relative to parent ligand 2 (times) / ICE relative to trioxa polyether 4 (times): rodents, po 300 μmol/kg
# [7] = tested on: iron-overloaded Cebus apella primates; assay: Chelator-induced iron clearance (ICE) in iron-overloaded Cebus apella primates; assay type: in vivo; conditions: for performance ratio (PR), mean ICEprimates/ICErodents: current study; for ICE (iron-clearing efficiency), primates: iron-overloaded C. apella
# Procedure: The drugs were administered in capsules (6, 7), solubilized in either 40% Cremophor RH-40/water (1), distilled water (4), or were given as their monosodium salts, prepared by the addition of 1 equiv of NaOH to a suspension of the free acid in distilled water (2, 3, 5). The efficiency of each compound was calculated by subtracting the 24-h iron excretion of control animals from the iron excretion of the treated animals. The number was then divided by the theoretical output; the result is expressed as a percent. […] The relative percentages of the iron excreted in the bile and urine are in brackets. ^cIn the primates [n=4 (1, 3, 4, 5, 6 in capsules, 7) or 7 (2, 6 as the monosodium salt)], the chelators were given po at a dose of 75 μmol/kg (5-7) or 150 μmol/kg (1-4). The drugs were administered in capsules (6^d, 7), solubilized in either 40% Cremophor RH-40/water (1, 3), distilled water (4), or were given as their monosodium salts, prepared by the addition of 1 equiv of NaOH to a suspension of the free acid in distilled water (2, 5, 6^e).
# Iron chelators in a Cebus apella monkey model. […] Briefly, the monkeys are iron overloaded with iron dextran administered intravenously to result in an iron loading of about 500 mg per kg of body weight. At least 20 half-lives, 60 days, elapse before the animals are used in experiments evaluating iron chelators. The iron chelators are suspended in vehicle and administered either p.o. or s.c. Fecal and urine samples are collected at 24 hour intervals beginning 4 days prior to the administration of an iron chelator and continued for 5 days after the chelator is administered. Iron concentrations in stool and urine are determined by flame atomic absorption spectroscometry. Iron chelator efficiency is calculated by dividing the net iron clearance [total iron excretion (stool plus urine) minus background] by the theoretical iron clearance and multiplying by 100. The theoretical clearance of the iron chelator is generated on the basis of a 2:1 ligand/iron complex.
# Drug preparation and administration. In the iron clearing experiments, the rats were given 5-7 orally at a dose of 300 μmol/kg. Ligand 5 was given by gavage as its monosodium salt (prepared by the addition of 1 equiv of NaOH to a suspension of the free acid in distilled water), while 6 and 7 were given in capsules. The primates were given 5-7 orally at a dose of Ligand 5 was given to the primates by gavage as its monosodium salt. Analogue 6 was given to the monkeys by gavage as its monosodium salt, as well as in capsules. Ligand 7 was given to the monkeys in capsules.
# rats = assay: Tissue iron decorporation in rats after 10 days of oral dosing; assay type: in vivo, rat (male Sprague-Dawley)
# Excerpt: Tissue iron decorporation: As described above, rodents were given acid 6 or 7 orally at a dose of 384 μmol/kg/day×10 days. Ethyl ester 7 was also given at a dose of 192 μmol/kg/d×10 days. On day 11, the animals were euthanized and the kidney, liver, pancreas, and heart were removed.
# Male Sprague-Dawley rats (300-350 g) were fasted overnight and were given the chelators first thing in the morning. […] Ligand 6 was given to the rats orally once daily at a dose of 384 μmol/kg/d×10 d. Note that this dose is equivalent to 100 mg/kg/day of the DFT sodium salt. The chelator (6) was administered orally in gelatin capsules (n=5), or by gavage as its monosodium salt (n=10). The ethyl ester (7) was administered orally in capsules once daily at a dose of 192 (n=6) or 384 μmol/kg/d (n=5)×10 d. Age-matched rats (n=12) served as untreated controls. The rats were euthanized 24 h post-drug (day 11) and extensive tissues were collected for histopathological analysis. Samples of the kidney, liver, heart and pancreas were reserved and assessed for their iron content.
# The initial step in the tissue preparation involved removing any obvious membranes or fat. A sample of each tissue (300-350 mg) was weighed and transferred to acid-washed hydrolysis (pressure) tubes. Note that the same region of each tissue was always utilized. […] The tubes were then sealed and placed in a 120° C. oil bath for 5 h; the tubes were vented as necessary. Then, the tubes were removed from the oil bath and allowed to cool to room temperature. The temperature of the oil bath was decreased to 100° C. Once the samples were cooled, 0.7 mL of hydrogen peroxide (30%) was added to the hydrolysis tube. The samples were placed back in the oil bath and cooked overnight. The samples were then removed from the oil bath and allowed to cool to room temperature. The hydrolysis tubes were vortexed and the digested samples were poured into 50-mL volumetric flasks. The samples were brought to volume using distilled water. Finally, the samples were poured into a syringe and filtered using 0.45μ 30 mm, Teflon syringe filters. Iron concentrations were determined by flame absorption spectroscopy as presented in other publications.^40,41
# [8] = Hydrolysis of ester 7 to acid 6 in rat plasma; assay type: in vitro ADME; conditions: 37° C., solubilized in DMSO
# Procedure: (§1) The profound difference between the ICE of the parent acid chelator 6 versus that of the ester 7 in rodents and primates is consistent with two possible explanations: 1) The ester is poorly absorbed from the gastrointestinal (GI) tract in the primates, or 2) The primate non-specific serum esterases simply may not cleave ester 7 to the active chelator acid 6. An experiment was performed using rat and monkey plasma in an attempt to determine if the relatively poor ICE of 7 in the primates was due to interspecies differences in hydrolysis. When 7 was solubilized in DMSO and incubated at 37° C. with rat plasma, all of the ester had been converted to the active acid 6 within 1-2 h. This was also the case when the experiment was carried out with plasma from Cebus apella monkeys. Thus, there is no difference in the hydrolysis of 7 between the rats and the primates. Therefore, the poor ICE of 7 in the monkeys is consistent with the idea that the ester is absorbed much more effectively from the GI tract of the rodents than from the GI tract of the primates. Control experiments were also performed in which saline was used in place of the rat or monkey plasma.
# (§2) Plasma analytical methods. […] The chelator concentrations were calculated from the peak area fitted to calibration curves by non-weighted least-squares linear regression with Shimadzu CLASS-NP 7.4 Chromatography Software. […]
# [9] = Octanol/water partition (log Papp), shake flask direct method, Tris buffer pH 7.4; conditions: from log Papp values
# Procedure: The efficiency of each compound was calculated by subtracting the 24-h iron excretion of control animals from the iron excretion of the treated animals. The number was then divided by the theoretical output; the result is expressed as a percent. […] The relative percentages of the iron excreted in the bile and urine are in brackets. ^cIn the primates [n=4 (1, 3, 4, 5, 6 in capsules, 7) or 7 (2, 6 as the monosodium salt)], the chelators were given po at a dose of 75 μmol/kg (5-7) or 150 μmol/kg (1-4).
# The partition values between octanol and water (at pH 7.4, Tris buffer) were determined using a “shake flask” direct method of measuring log Papp values.^52 The fraction of drug in the octanol is then expressed as log Papp.
# [10] = Control incubation of ester 7 in saline in place of plasma; assay type: physicochemical; conditions: solubilized in DMSO
# Procedure: as §1
# The ethyl ester (7) was solubilized in DMSO and further diluted with distilled water to provide a 100 μM solution. A 25 μL aliquot of the drug solution was added to centrifuge tubes containing 100 μL of rat or primate plasma. […]
# [11] = Hydrolysis of ester 7 to acid 6 in Cebus apella monkey plasma; assay type: in vitro ADME; conditions: 37° C., solubilized in DMSO
# Procedure: as §1, §2
# [12] = bile duct-cannulated rats, po 300 μmol/kg
# [13] = po 75 μmol/kg by gavage as monosodium salt
# [14] = 384 μmol/kg/day × 10 days po as sodium salt
# [15] = 384 μmol/kg/day × 10 days po in capsules
# [16] = 192 μmol/kg/d × 10 days po in capsules
smiles,measurement,setting,value
"COCCOCCOCCOc1ccc(O)c(C2=NC(C)(C(=O)O)CS2)c1 (single isomer, unassigned) [5′-isomer of 4]","performance ratio (PR), mean ICEprimates/ICErodents",[1]; previously reported (ref 46),1
same,"ICE (iron-clearing efficiency), primates","[1]; previously reported, dose not stated",8.1±2.8%
"C[C@]1(C(=O)O)CSC(c2ncccc2O)=N1 [ligand 1, (S)-4,5-dihydro-2-(3-hydroxy-2-pyridinyl)-4-methyl-4-thiazolecarboxylic acid]",nephrotoxicity,[2],severely nephrotoxic
same,log β2,[3],29.6
same,"ICE (iron-clearing efficiency), rodents","[4]; bile duct-cannulated rodent model, po 150 μmol/kg",5.5%
same,"ICE (iron-clearing efficiency), primates","[1]; iron-overloaded C. apella, po 150 μmol/kg, historical data",16%
"C[C@]1(C(=O)O)CSC(c2ccc(O)cc2O)=N1 [ligand 2, (S)-2-(2,4-dihydroxyphenyl)-4,5-dihydro-4-methyl-4-thiazolecarboxylic acid]",clinical trial outcome,[5],abandoned by Genzyme because of renal toxicity
same,"time of maximum iron clearance (MIC), biliary ferrokinetics",[6],3 h
same,"time until iron excretion is over / returned to baseline, biliary ferrokinetics",[6],9 h
same,"ICE (iron-clearing efficiency), rodents",[4]; [12],1.1±0.8%
"COc1ccc(C2=N[C@@](C)(C(=O)O)CS2)c(O)c1 [ligand 3, (S)-4,5-dihydro-2-(2-hydroxy-4-methoxyphenyl)-4-methyl-4-thiazolecarboxylic acid]",nephrotoxicity,[2],very nephrotoxic; also recorded: unacceptably nephrotoxic
"COCCOCCOCCOc1ccc(C2=N[C@@](C)(C(=O)O)CS2)c(O)c1 [ligand 4, (S)-4,5-dihydro-2-[2-hydroxy-4-(3,6,9-trioxadecyloxy)phenyl]-4-methyl-4-thiazolecarboxylic acid, reference compound]",ICE relative to longer analogue 5 (times),[7]; primates,2.5
same,"time of maximum iron clearance (MIC), biliary ferrokinetics",[6],3 h
same,"time until iron excretion is over / returned to baseline, biliary ferrokinetics",[6],12 h
same,ICE relative to parent ligand 2 (times),[6],five times greater
same,nephrotoxicity,[2],virtually absent of any nephrotoxicity
same,"ICE (iron-clearing efficiency), rodents",[4]; [12],5.5±1.9%
"COCCOCCOCCOCCOc1ccc(C2=N[C@@](C)(C(=O)O)CS2)c(O)c1 [ligand 5, (S)-4,5-dihydro-2-[2-hydroxy-4-(3,6,9,12-tetraoxamidecyloxy)phenyl]-4-methyl-4-thiazolecarboxylic acid]","performance ratio (PR), mean ICEprimates/ICErodents",[7],0.82
same,"ICE (iron-clearing efficiency), primates",[7]; [13],9.8±1.9%
same,"time of maximum iron clearance (MIC), biliary ferrokinetics",[6],6 h
same,"time until iron excretion is over / returned to baseline, biliary ferrokinetics",[6],24 h
same,"ICE (iron-clearing efficiency), rodents",[6]; po 300 μmol/kg by gavage as monosodium salt,12.0±1.5%
same,ICE relative to parent ligand 2 (times),[6],~11
same,ICE relative to trioxa polyether 4 (times),[6],twice as effective
"COCCOCCOc1ccc(C2=N[C@@](C)(C(=O)O)CS2)c(O)c1 [ligand 6, (S)-4,5-dihydro-2-[2-hydroxy-4-(3,6-dioxaheptyloxy)phenyl]-4-methyl-4-thiazolecarboxylic acid]",decrease of cardiac iron vs untreated controls,rats; [14],9.9%
same,reduction of liver iron vs untreated controls,rats; [14],> 35%
same,reduction of pancreatic iron vs untreated controls,rats; [14],significant reduction in pancreatic iron
same,reduction of renal iron content vs untreated controls,rats; [14],24.8%
same,decrease of cardiac iron vs untreated controls,rats; [15],6.9%
same,reduction of liver iron vs untreated controls,rats; [15],> 35%
same,reduction of pancreatic iron vs untreated controls,rats; [15],but not when it was dosed in capsules
same,reduction of renal iron content vs untreated controls,rats; [15],7.4%
same,"performance ratio (PR), mean ICEprimates/ICErodents",[7],1.0
same,"ICE (iron-clearing efficiency), primates",[7]; [13],28.7±12.4%
same,"ICE (iron-clearing efficiency), primates",[7]; po 75 μmol/kg in capsules,26.3±9.9% and > 26%
same,"ICE (iron-clearing efficiency), rodents",[6]; po 300 μmol/kg in capsules,> 26%
same,"ICE (iron-clearing efficiency), rodents","[6]; po 300 μmol/kg in capsules, listed as 6",26.7±4.7%
same,ICE relative to trioxa polyether 4 (times),[6],nearly five times greater
"CCOC(=O)[C@@]1(C)CSC(c2ccc(OCCOCCOC)cc2O)=N1 [ligand 7, ethyl (S)-4,5-dihydro-2-[2-hydroxy-4-(3,6-dioxaheptyloxy)phenyl]-4-methyl-4-thiazolecarboxylate]",decrease of cardiac iron vs untreated controls,rats; [16],Neither dose was associated with a reduction
same,reduction of liver iron vs untreated controls,rats; [16],27%
same,reduction of pancreatic iron vs untreated controls,rats; [16],Neither dose was associated with a reduction
same,reduction of renal iron content vs untreated controls,rats; [16],12.6%
same,decrease of cardiac iron vs untreated controls,rats; [15],Neither dose was associated with a reduction
same,reduction of liver iron vs untreated controls,rats; [15],59.1%
same,reduction of pancreatic iron vs untreated controls,rats; [15],Neither dose was associated with a reduction
same,reduction of renal iron content vs untreated controls,rats; [15],32.1%
same,time for conversion of all of the ester to the active acid 6,[8],1 to 2 h
same,fold difference in partition,[9]; 7 vs 1,greater than 58.000 fold
same,times more lipophilic than the parent 2,[9]; 7 vs 2,"11,220"
same,"performance ratio (PR), mean ICEprimates/ICErodents",[7],0.33
same,"ICE (iron-clearing efficiency), primates",[7]; po 75 μmol/kg in capsules,8.8±2.2%
same,ICE relative to acid 6,[7]; primates,only one third
same,stability of the ester in saline,[10],all of the drug remained in the form of the ester
same,"ICE (iron-clearing efficiency), rodents",[6]; po 300 μmol/kg in capsules,25.9±6.5%
same,ICE relative to parent ligand 2 (times),[6],approximately 24
same,time for conversion of all of the ester to the active acid 6,[11],1 to 2 h
